Two compounds from patent publication US7541367B2, “3-benzoimidazolyl-pyrazolopyridines useful in treating kinase disorders” (Janssen Pharmaceutica, N.V., priority 2005, dated 2009) can be followed below.

As usually defined, the pIC50 is the IC50 on a negative log10 scale, so that one unit is a factor of ten. Read a low pIC50 as a large IC50.

pIC50: −log10 of the molar value. Where only a bound is given, the exact number is not on record here.

Experiment [1] deals with Human melanoma A375 cells. Put plainly: In Vivo Models - Inhibition of Tumor Growth (A375 xenograft). The settings on record: female athymic mice, 25 mg/kg i.p. daily. On the procedure: The ability of test compounds to inhibit unregulated growth of human tumor cells in vivo was evaluated by implanting human tumor cells into the hindflank of athymic mice, administering a test compound and then quantifying any change in tumor size.
Certain compounds at particular doses produced adverse effects in this model. One skilled in the art would be able to establish the effective amount of compound required to achieve an effective therapeutic window.
Human melanoma A375 cells were implanted subcutaneously into the hindflank of female athymic mice (Charles River) and allowed to grow for 6-10 days. After a measurable tumor was established (as determined by baseline caliper measurement), the animal was administered an intraperitoneal (i.p.) dose of the test compound daily at 25 mg/kg for the length of the study. Tumor size was measured at certain intervals as shown in Table 5 and the degree of inhibition for a test compound was determined by comparing the reduction in tumor volume for drug-treated animals to that of untreated and vehicle-treated animals. The vehicle used was 20% hydroxypropyl β-cyclodextran.

In a further experiment the target is T1, c-Src kinase (Homo sapiens, UniProt P12931).
T1 construct: purchased Upstate Biotechnology, Lake Placid, N.Y
T1 sequence (P12931 whole entry): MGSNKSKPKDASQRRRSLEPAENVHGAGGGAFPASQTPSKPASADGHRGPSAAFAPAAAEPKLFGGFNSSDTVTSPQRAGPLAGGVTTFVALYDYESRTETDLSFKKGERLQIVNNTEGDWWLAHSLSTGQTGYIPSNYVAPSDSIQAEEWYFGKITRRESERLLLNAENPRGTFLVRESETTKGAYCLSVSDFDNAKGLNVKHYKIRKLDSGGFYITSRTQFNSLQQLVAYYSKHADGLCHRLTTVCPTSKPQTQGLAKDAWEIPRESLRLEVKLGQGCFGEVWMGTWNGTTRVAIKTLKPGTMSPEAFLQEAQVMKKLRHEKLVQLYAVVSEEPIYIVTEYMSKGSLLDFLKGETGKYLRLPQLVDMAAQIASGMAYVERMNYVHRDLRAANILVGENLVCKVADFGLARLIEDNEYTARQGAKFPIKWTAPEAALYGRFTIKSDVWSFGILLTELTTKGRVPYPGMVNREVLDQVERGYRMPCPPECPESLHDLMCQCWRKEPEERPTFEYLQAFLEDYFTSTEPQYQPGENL
Put plainly: c-Src Kinase Assay. It is filed as biochemical. Particulars: 5 μM ATP. Summed up:
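Human c-Src phosphorylated Cdc2 peptide (100 μM) […]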

The next experiment deals with T2, HER2 (Homo sapiens, UniProt P04626).
T2 construct: GST (Glutathione-S-Transferase) (N); HIS6 (N); thrombin cleavage site (N); purchased Proqinase, Freiburg, Germany
T2 sequence (P04626 679-1255): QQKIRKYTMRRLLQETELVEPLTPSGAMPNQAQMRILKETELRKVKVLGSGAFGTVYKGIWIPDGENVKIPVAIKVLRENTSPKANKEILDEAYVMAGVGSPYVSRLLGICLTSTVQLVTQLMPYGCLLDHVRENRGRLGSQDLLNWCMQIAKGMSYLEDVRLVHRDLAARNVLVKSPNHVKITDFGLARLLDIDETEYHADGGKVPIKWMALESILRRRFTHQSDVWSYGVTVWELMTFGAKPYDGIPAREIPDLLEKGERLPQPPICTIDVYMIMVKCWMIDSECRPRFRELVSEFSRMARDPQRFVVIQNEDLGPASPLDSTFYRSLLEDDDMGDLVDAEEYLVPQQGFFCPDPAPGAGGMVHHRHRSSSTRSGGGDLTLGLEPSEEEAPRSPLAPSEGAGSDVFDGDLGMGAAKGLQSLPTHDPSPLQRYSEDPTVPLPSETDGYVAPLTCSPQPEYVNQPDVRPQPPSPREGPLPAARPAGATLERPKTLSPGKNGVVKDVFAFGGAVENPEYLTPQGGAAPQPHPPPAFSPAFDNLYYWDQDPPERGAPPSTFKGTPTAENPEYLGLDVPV
Put plainly: HER2 kinase screening assay (33P-ATP FlashPlate).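 Also: Biotin-poly(GT) 4:1 peptide captured on streptavidin FlashPlate, 33P transfer from γ-ATP read by scintillation counting, lower incorporation means inhibition, 1% DMSO final, 100 µL reaction.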 The settings on record: GST-HIS6 HER-2 aa 679 to 1255; 10 μM ATP; 1 hr at 30° C. The experiment is classed as biochemical.

The next experiment deals with T3, RET (Homo sapiens, UniProt P07949).
T3 construct: polyhistidine (N)
T3 sequence (P07949 658-1114 limits assumed): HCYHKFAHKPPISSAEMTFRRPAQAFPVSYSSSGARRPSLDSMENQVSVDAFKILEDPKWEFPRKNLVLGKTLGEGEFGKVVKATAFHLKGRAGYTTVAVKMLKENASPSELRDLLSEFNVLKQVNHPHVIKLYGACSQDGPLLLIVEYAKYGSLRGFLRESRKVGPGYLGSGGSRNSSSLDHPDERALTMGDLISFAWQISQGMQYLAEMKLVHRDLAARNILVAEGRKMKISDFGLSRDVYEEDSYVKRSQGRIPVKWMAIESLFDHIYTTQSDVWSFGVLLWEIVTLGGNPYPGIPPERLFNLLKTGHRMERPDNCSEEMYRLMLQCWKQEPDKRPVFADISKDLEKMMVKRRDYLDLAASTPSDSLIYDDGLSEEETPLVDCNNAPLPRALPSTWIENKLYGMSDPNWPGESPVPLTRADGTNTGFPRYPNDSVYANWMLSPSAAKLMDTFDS
Put plainly: RET kinase screening assay (33P-ATP FlashPlate).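 Also: biotinylated peptide substrate captured on streptavidin FlashPlate, 33P phosphate transfer read by scintillation counting, 1% DMSO, lower incorporation means inhibition, percent relative to per-plate maximum and minimum signals.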 The experiment is classed as biochemical. The settings on record: human RET kinase domain; 10 μM ATP; 1 hr at 30° C.

A further experiment concerns the target T4, Lyn kinase (Homo sapiens, UniProt P07948).
T4 construct: purchased Upstate Biotechnology, Lake Placid, N.Y
Put plainly: Lyn Kinase Assay. It is filed as biochemical. The settings on record: 5 μM ATP. The procedure, abridged: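 Recombinant human Lyn kinase in pH 7.5 Tris buffer with EGTA, vanadate, β-mercaptoethanol and BSA reacted with compound for 40 min at 30° C. The radiolabelled product was captured on P30 filtermats after phosphoric acid stop and counted by scintillation. IC50 came from percent inhibition versus log concentration, using plate maximum/minimum signals.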

The next experiment concerns HCT-116 colon carcinoma. Put plainly: Cell Proliferation Inhibition Assay (14C-thymidine incorporation), HCT-116.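 Also: proliferation measured as methyl 14C-thymidine uptake into new DNA, counted in 96-well scintillating microplates, compared with DMSO-only control wells.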 The settings on record: Homo sapiens, HCT-116, HCT-116 cells. The experiment is classed as cell-based. In general terms: Dividing cells build labelled thymidine or BrdU into new DNA.
For the next experiment, the target named is T5, VEGF-R2 (Rattus norvegicus, UniProt O08775).
T5 construct: polyhistidine (N)
T5 sequence (O08775 786-1343): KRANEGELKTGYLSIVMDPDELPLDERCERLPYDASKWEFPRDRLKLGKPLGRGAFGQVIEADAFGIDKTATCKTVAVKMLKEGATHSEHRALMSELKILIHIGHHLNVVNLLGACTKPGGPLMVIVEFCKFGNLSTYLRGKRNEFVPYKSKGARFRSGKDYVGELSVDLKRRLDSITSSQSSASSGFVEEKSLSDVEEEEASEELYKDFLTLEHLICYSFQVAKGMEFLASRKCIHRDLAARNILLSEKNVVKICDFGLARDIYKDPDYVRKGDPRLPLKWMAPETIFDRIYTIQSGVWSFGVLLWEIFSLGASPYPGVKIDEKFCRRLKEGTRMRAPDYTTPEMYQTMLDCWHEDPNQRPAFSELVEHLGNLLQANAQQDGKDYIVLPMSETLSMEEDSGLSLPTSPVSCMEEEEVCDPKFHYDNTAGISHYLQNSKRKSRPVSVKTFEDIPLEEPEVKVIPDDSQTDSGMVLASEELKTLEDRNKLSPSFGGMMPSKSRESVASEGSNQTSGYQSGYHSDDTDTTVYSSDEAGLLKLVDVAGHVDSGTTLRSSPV
Put plainly: VEGF-R2 kinase screening assay (33P-ATP FlashPlate).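 Also: Read-out is ³³P incorporation from ³³P-γ-ATP into biotinylated peptide substrate captured on streptavidin FlashPlate, counted by scintillation, 1% DMSO final, inhibition scaled between per-plate maximum and minimum signals.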 The experiment is classed as biochemical. Particulars: rat VEGF-R2 kinase domain; 10 μM ATP; 1 hr at 30° C.

T4 sequence (P07948 whole entry): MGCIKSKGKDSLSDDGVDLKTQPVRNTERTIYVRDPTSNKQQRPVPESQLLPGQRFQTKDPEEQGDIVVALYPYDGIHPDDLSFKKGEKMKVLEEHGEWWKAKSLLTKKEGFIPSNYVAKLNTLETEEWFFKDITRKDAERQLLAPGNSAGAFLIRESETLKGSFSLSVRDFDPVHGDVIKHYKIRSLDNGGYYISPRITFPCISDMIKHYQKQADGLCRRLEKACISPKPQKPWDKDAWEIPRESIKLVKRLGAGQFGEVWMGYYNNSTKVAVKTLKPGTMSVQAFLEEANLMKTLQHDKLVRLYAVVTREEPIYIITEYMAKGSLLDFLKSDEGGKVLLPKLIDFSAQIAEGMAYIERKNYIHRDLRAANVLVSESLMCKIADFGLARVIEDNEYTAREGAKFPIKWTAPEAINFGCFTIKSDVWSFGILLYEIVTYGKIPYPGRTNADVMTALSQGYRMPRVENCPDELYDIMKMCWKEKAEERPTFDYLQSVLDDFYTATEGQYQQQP

As to `CNCc1cncc(-c2cnc3[nH]nc(-c4nc5cc(OC(F)(F)F)ccc5[nH]4)c3c2)c1` [Cpd 96, methyl-{5-[3-(5-trifluoromethoxy-1H-benzoimidazol-2-yl)-1H-pyrazolo[3,4-b]pyridin-5-yl]-pyridin-3-ylmethyl}-amine], the Tumor volume was determined as 95.4 mm^3 in experiment [1] (Day 1) and 68.3 mm^3 in experiment [1] (Day 4). Besides, the pIC50 at c-Src kinase is 7.51; against HER2, 5.42; on RET it was less than 4.00; against Lyn kinase, 8.08; with HCT-116 colon carcinoma, 7.26; on VEGF-R2, less than 7.00.

In the case of `CCNCc1cncc(-c2cnc3[nH]nc(-c4nc5cc(OC)ccc5[nH]4)c3c2)c1` [Cpd 101, ethyl-{5-[3-(5-methoxy-1H-benzoimidazol-2-yl)-1H-pyrazolo[3,4-b]pyridin-5-yl]-pyridin-3-ylmethyl}-amine], the Tumor volume was 95.4 mm^3 in experiment [1] (Day 1); 128 mm^3 in experiment [1] (Day 4); 354.1 mm^3 in experiment [1] (Day 8); 632.3 mm^3 in experiment [1] (Day 11); 988.7 mm^3 in experiment [1] (Day 14). Besides, the pIC50 is 8.05 on c-Src kinase; 5.38 at HER2; roughly 6.00 against RET; 8.60 at Lyn kinase; 7.31 in the experiment with HCT-116 colon carcinoma; less than 7.00 against VEGF-R2.
